Measured values taken from ChEMBL document CHEMBL1145549, “Constrained NBMPR analogue synthesis, pharmacophore mapping and 3D-QSAR modeling of equilibrative nucleoside transporter 1 (ENT1) inhibitory activity” (Bioorg Med Chem, 2008).
pIC50: −log10 of the molar value.

Each compound was assayed against T1, Equilibrative nucleoside transporter 1 (Homo sapiens, UniProt Q99808) (assay: Binding affinity to ENT1 transporter).
T1 sequence (Q99808 whole entry): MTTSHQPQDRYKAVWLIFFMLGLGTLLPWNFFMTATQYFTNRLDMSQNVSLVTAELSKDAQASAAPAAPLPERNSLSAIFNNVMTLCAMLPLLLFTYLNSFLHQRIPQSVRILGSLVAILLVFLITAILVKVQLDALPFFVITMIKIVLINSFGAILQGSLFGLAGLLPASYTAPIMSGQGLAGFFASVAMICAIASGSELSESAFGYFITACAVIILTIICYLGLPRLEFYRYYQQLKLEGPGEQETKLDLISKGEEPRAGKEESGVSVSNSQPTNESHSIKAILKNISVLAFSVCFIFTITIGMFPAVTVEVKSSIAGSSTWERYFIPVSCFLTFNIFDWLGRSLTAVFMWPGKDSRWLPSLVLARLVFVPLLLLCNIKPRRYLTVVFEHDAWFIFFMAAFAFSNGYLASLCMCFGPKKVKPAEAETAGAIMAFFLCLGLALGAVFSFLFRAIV

pIC50 | Structure (SMILES)
3.94 | COc1cccc(CNc2ncnc3c2ncn3[C@@H]2O[C@H](CO)[C@@H](O)[C@H]2O)c1
5.75 | OC[C@H]1O[C@@H](n2cnc3c(CSc4ccccc4Cl)ncnc32)[C@H](O)[C@@H]1O
7.06 | Cc1cc(CNc2ncnc3c2ncn3[C@@H]2O[C@H](CO)[C@@H](O)[C@H]2O)ccc1[N+](=O)[O-]
3.48 | CC(C)(C)c1ccc(SCc2ncnc3c2ncn3[C@@H]2O[C@H](CO)[C@@H](O)[C@H]2O)cc1
3.35 | CC(=O)c1ccccc1Sc1nc(N)nc2c1ncn2[C@@H]1O[C@H](CO)[C@@H](O)[C@H]1O
3.56 | CSc1ncnc2c1ncn2C1CCCCO1 (stereo not given)
5.89 | Cc1ccc([N+](=O)[O-])c(CNc2ncnc3c2ncn3[C@@H]2O[C@H](CO)[C@@H](O)[C@H]2O)c1
4.48 | Cc1cc(C)c(SCc2ncnc3c2ncn3[C@@H]2O[C@H](CO)[C@@H](O)[C@H]2O)c(C)c1
3.94 | CSc1ncnc2c1c(Br)cn2[C@@H]1O[C@H](CO)[C@@H](O)[C@H]1O
5.38 | Nc1ccc(CNc2ncnc3c2ncn3[C@@H]2O[C@H](CO)[C@@H](O)[C@H]2O)cc1
6.55 | OC[C@H]1O[C@@H](n2cnc3c(CSc4cccc(Cl)c4)ncnc32)[C@H](O)[C@@H]1O
6.61 | OC[C@H]1O[C@@H](n2cnc3c(CSc4cccc(I)c4)ncnc32)[C@H](O)[C@@H]1O
6.70 | OC[C@H]1O[C@@H](n2cnc3c(CSc4cccc(F)c4)ncnc32)[C@H](O)[C@@H]1O
6.65 | OC[C@H]1O[C@@H](n2cnc3c(CSc4ccc(Cl)c(Cl)c4)ncnc32)[C@H](O)[C@@H]1O
3.92 | CCCCn1cnc2c(SC(C)C)nc(N)nc21
8.32 | O=[N+]([O-])c1cccc(SCc2ncnc3c2ncn3[C@@H]2O[C@H](CO)[C@@H](O)[C@H]2O)c1
3.69 | CSc1nc(N)nc2c1ncn2[C@@H]1O[C@H](CO)[C@@H](O)[C@H]1O
5.06 | CC(C)CSc1nc(N)nc2c1ncn2[C@@H]1O[C@H](CO)[C@@H](O)[C@H]1O
3.66 | CCCCn1cnc2c(SC)nc(N)nc21
7.66 | C[C@H]1O[C@@H](n2cnc3c(NCc4ccc([N+](=O)[O-])cc4)ncnc32)[C@H](O)[C@@H]1O
5.82 | OC[C@H]1O[C@@H](n2cnc3c(CSc4c(F)cccc4Cl)ncnc32)[C@H](O)[C@@H]1O
1.94 | Cc1cccc(CSc2nc(N)nc3c2ncn3[C@@H]2O[C@H](CO)[C@@H](O)[C@H]2O)n1

pIC50 | Structure (SMILES)
5.94 | Nc1nc(SCc2ccc(F)cc2)c2ncn([C@@H]3O[C@H](CO)[C@@H](O)[C@H]3O)c2n1
7.16 | OC[C@H]1O[C@@H](n2cnc3c(CSc4ccc(I)cc4)ncnc32)[C@H](O)[C@@H]1O
4.49 | CCCSc1nc(N)nc2c1ncn2[C@@H]1O[C@H](CO)[C@@H](O)[C@H]1O
8.56 | Nc1nc(SCc2cc([N+](=O)[O-])ccc2O)c2ncn([C@@H]3O[C@H](CO)[C@@H](O)[C@H]3O)c2n1
5.32 | Nc1nc(SCc2ccccc2F)c2ncn([C@@H]3O[C@H](CO)[C@@H](O)[C@H]3O)c2n1
7.48 | O=[N+]([O-])c1ccc(O)c(CSc2ncnc3c2ncn3[C@@H]2O[C@H](CO)[C@@H](O)[C@H]2O)c1
6.15 | O=[N+]([O-])c1cc(CNc2ncnc3c2ncn3[C@@H]2O[C@H](CO)[C@@H](O)[C@H]2O)ccc1Cl
6.55 | OC[C@H]1O[C@@H](n2cnc3c(CSc4ccccc4I)ncnc32)[C@H](O)[C@@H]1O
6.45 | OC[C@H]1O[C@@H](n2cnc3c(CSc4ccccc4F)ncnc32)[C@H](O)[C@@H]1O
6.46 | O=[N+]([O-])c1ccc(CNc2ncnc3c2ncn3[C@@H]2O[C@H](CO)[C@@H](O)[C@H]2O)c(Cl)c1
6.74 | CC(=O)Nc1ccc(CNc2ncnc3c2ncn3[C@@H]2O[C@H](CO)[C@@H](O)[C@H]2O)cc1
4.87 | Nc1nc(SCc2ccccc2Cl)c2ncn([C@@H]3O[C@H](CO)[C@@H](O)[C@H]3O)c2n1
4.20 | CCC(C)Sc1nc(N)nc2c1ncn2[C@@H]1O[C@H](CO)[C@@H](O)[C@H]1O (stereo not given in full)
4.28 | CCCCn1cnc2c(SCc3ccccn3)nc(N)nc21
6.21 | COc1ccc(SCc2ncnc3c2ncn3[C@@H]2O[C@H](CO)[C@@H](O)[C@H]2O)cc1
4.79 | Nc1nc(SCCc2ccccc2)c2ncn([C@@H]3O[C@H](CO)[C@@H](O)[C@H]3O)c2n1
3.71 | OC[C@H]1O[C@@H](n2ccc3c(N4CCCCC4)ncnc32)[C@H](O)[C@@H]1O
4.04 | OC[C@H]1O[C@@H](n2cnc3c(Sc4ccccc4)ncnc32)[C@H](O)[C@@H]1O
6.75 | Nc1nc(SCc2cccc([N+](=O)[O-])c2)c2ncn([C@@H]3O[C@H](CO)[C@@H](O)[C@H]3O)c2n1
5.93 | Cc1ccc(CNc2ncnc3c2ncn3[C@@H]2O[C@H](CO)[C@@H](O)[C@H]2O)cc1[N+](=O)[O-]
4.33 | O=[N+]([O-])c1cc(Cl)ccc1CNc1ncnc2c1ncn2[C@@H]1O[C@H](CO)[C@@H](O)[C@H]1O
7.80 | O=[N+]([O-])c1ccc(CNc2ncnc3c2ncn3[C@H]2C[C@H](O)[C@@H](CO)O2)cc1

pIC50 | Structure (SMILES)
4.00 | c1ccc(CCNc2ncnc3[nH]ncc23)cc1
6.80 | OC[C@H]1O[C@@H](n2cnc3c(CSc4ccc(F)cc4)ncnc32)[C@H](O)[C@@H]1O
6.34 | Cc1ccc(CSc2ncnc3c2ncn3[C@@H]2O[C@H](CO)[C@@H](O)[C@H]2O)cc1
4.11 | OC[C@H]1O[C@@H](n2cc(I)c3c(Cl)ncnc32)[C@H](O)[C@@H]1O
3.64 | CSc1ncnc2c1ncn2[C@@H]1O[C@H](CO)[C@@H](O)[C@H]1O
3.47 | COc1ncnc2c1ccn2[C@@H]1O[C@H](CO)[C@@H](O)[C@H]1O
4.38 | CCCC(C)n1cnc2c(SCc3ccccn3)nc(N)nc21 (stereo not given)
3.63 | CC(C)CCNc1ncnc2[nH]ncc12
4.04 | CCCn1cnc2c(SCc3ccccn3)nc(N)nc21
5.28 | Nc1nc(SCc2ccccc2)c2ncn([C@@H]3O[C@H](CO)[C@@H](O)[C@H]3O)c2n1
3.84 | CCCn1cnc2c(SC(C)C)nc(N)nc21
5.34 | Nc1nc(SCc2ccccc2[N+](=O)[O-])c2ncn([C@@H]3O[C@H](CO)[C@@H](O)[C@H]3O)c2n1
3.79 | CCSc1nc(N)nc2c1ncn2[C@@H]1O[C@H](CO)[C@@H](O)[C@H]1O
6.09 | COC(=O)c1ccc(SCc2ncnc3c2ncn3[C@@H]2O[C@H](CO)[C@@H](O)[C@H]2O)cc1
7.09 | N#Cc1ccc(SCc2ncnc3c2ncn3[C@@H]2O[C@H](CO)[C@@H](O)[C@H]2O)cc1
4.46 | Nc1nc(SCc2ccccn2)c2ncn([C@@H]3O[C@H](CO)[C@@H](O)[C@H]3O)c2n1
4.20 | CCCSc1nc(N)nc2c1ncn2CC(C)C
3.24 | Cn1cnc([N+](=O)[O-])c1Sc1nc(N)nc2c1ncn2[C@@H]1O[C@H](CO)[C@@H](O)[C@H]1O
3.72 | CC(C)Sc1nc(N)nc2c1ncn2[C@@H]1O[C@H](CO)[C@@H](O)[C@H]1O
7.11 | OC[C@H]1O[C@@H](n2cnc3c(CSc4ccc(Cl)cc4Cl)ncnc32)[C@H](O)[C@@H]1O
6.09 | Nc1nc(SCc2ccc(Br)cc2)c2ncn([C@@H]3O[C@H](CO)[C@@H](O)[C@H]3O)c2n1
6.01 | O=[N+]([O-])c1ccc(CNc2ncnc3c2ncn3[C@@H]2O[C@H](CO)C[C@H]2O)cc1

pIC50 | Structure (SMILES)
7.50 | O=[N+]([O-])c1ccc(CNc2ncnc3c2ncn3[C@@H]2O[C@H](CO)[C@@H](O)[C@@H]2O)cc1
6.91 | OC[C@H]1O[C@@H](n2cnc3c(CSc4ccc(OC(F)(F)F)cc4)ncnc32)[C@H](O)[C@@H]1O
5.28 | OC[C@H]1O[C@@H](n2ccc3c(SCc4ccccc4)ncnc32)[C@H](O)[C@@H]1O
3.94 | Cc1ccc2ccccc2c1CSc1ncnc2c1ncn2[C@@H]1O[C@H](CO)[C@@H](O)[C@H]1O
5.87 | OC[C@H]1O[C@@H](n2cnc3c(SCCCc4ccccc4)ncnc32)[C@H](O)[C@@H]1O
6.75 | OC[C@H]1O[C@@H](n2cnc3c(CSc4ccc(Br)cc4)ncnc32)[C@H](O)[C@@H]1O
5.54 | Nc1nc(SCc2cccc(Br)c2)c2ncn([C@@H]3O[C@H](CO)[C@@H](O)[C@H]3O)c2n1
5.62 | OC[C@H]1O[C@@H](n2cnc3c(CSc4ccccc4Br)ncnc32)[C@H](O)[C@@H]1O
6.44 | OC[C@H]1O[C@@H](n2cnc3c(CSc4cccc(Br)c4)ncnc32)[C@H](O)[C@@H]1O
4.92 | CCCCSc1nc(N)nc2c1ncn2[C@@H]1O[C@H](CO)[C@@H](O)[C@H]1O
6.60 | OC[C@H]1O[C@@H](n2cnc3c(CSc4ccc(Cl)cc4)ncnc32)[C@H](O)[C@@H]1O
6.97 | O=[N+]([O-])c1ccc(CNc2ncnc3c2ncn3[C@@H]2O[C@H](CCl)[C@@H](O)[C@H]2O)cc1
6.37 | Cc1c(CNc2ncnc3c2ncn3[C@@H]2O[C@H](CO)[C@@H](O)[C@H]2O)cccc1[N+](=O)[O-]
6.48 | OC[C@H]1O[C@@H](n2cnc3c(CSc4cccc(C(F)(F)F)c4)ncnc32)[C@H](O)[C@@H]1O
5.32 | CC(C)c1ccc(CSc2ncnc3c2ncn3[C@@H]2O[C@H](CO)[C@@H](O)[C@H]2O)cc1
3.41 | OC[C@H]1O[C@@H](n2ccc3c(S)ncnc32)[C@H](O)[C@@H]1O
4.83 | Nc1nc(SCc2cccnc2)c2ncn([C@@H]3O[C@H](CO)[C@@H](O)[C@H]3O)c2n1
5.20 | Cc1ccccc1CSc1ncnc2c1ncn2[C@@H]1O[C@H](CO)[C@@H](O)[C@H]1O
4.92 | Cc1cccc(CSc2ncnc3c2ncn3[C@@H]2O[C@H](CO)[C@@H](O)[C@H]2O)c1
